Experimental data from ChEMBL document CHEMBL3886467 (2016).
pIC50: −log10 of the molar value.

Molecular target: WD repeat-containing protein 5 (Homo sapiens, UniProt P61964)
Test: Binding Assay: All the FP based experiments were performed in MICROFLUOR 2 Black, "U" Bottom, 96-well Microtiter Plates (ThermoSci.) and FP was measured as mP units in a microplate reader (Tecan Ultra) with excitation at 485 nm and emission at 530 nm. To dilutions of WDR5Δ23 (2.2-0 uM) in 100 ul assay buffer (0.1M Phosphate, 25 mM KCl, 0.01% Triton, pH 6.5) 20 ul of a fixed concentration of the tracer in the assay buffer was added, followed by an addition of 5 ul DMSO to give 125 ul of total volume. Each assay had two controls: blank (without protein and tracer) and tracer only (without protein). The plates were incubated on a shaker at room temperature to reach equilibrium and mP values were measured at the 3 hour time point.

SMILES	pIC50
CC(=O)N[C@@H](C)C(=O)N[C@@H](C(=O)N[C@@H](C)C(N)=O)c1ccc(NC(=N)N)cc1	< 5.00
CCC(CC)(NC(=O)C(C)C)C(=O)N[C@@H](CCCNC(=N)N)C(=O)N(C)C	< 4.52

Now from value to compound:

pIC50	SMILES
> 5.52	CCC(CC)(NC(=O)C(C)C)C(=O)N[C@@H](CCCNC(=N)N)C(=O)NC1(C(=O)NC(c2ccc(Cl)cc2)c2ccc(Cl)cc2)CCCC1
> 5.00	CCC(CC)(NC(=O)C(C)C)C(=O)N[C@H](CCCNC(=N)N)C(=O)NC1(C(=O)NC(c2ccc(Cl)cc2)c2ccc(Cl)cc2)CCCC1
< 5.00	CC(=O)N[C@@H](C)C(=O)N[C@H](C(=O)N[C@@H](C)C(N)=O)c1ccc(NC(=N)N)cc1
> 5.00	CCNC(=O)[C@H](CCCNC(=N)N)NC(=O)C(CC)(CC)NC(=O)CC
